The record followed here is publication PMC9737664, “Human Milk Oligosaccharide 2′-Fucosyllactose Inhibits Ligand Binding to C-Type Lectin DC-SIGN but Not to Langerin” (International Journal of Molecular Sciences, 2022).

The target of this experiment is T1, DC-SIGN (Homo sapiens, UniProt Q9NNX6).
T1 construct: gene CD209; DC-SIGN-Fc: extracellular domain fused to the Fc portion of human IgG1
T1 sequence (Q9NNX6 59-404 limits assumed): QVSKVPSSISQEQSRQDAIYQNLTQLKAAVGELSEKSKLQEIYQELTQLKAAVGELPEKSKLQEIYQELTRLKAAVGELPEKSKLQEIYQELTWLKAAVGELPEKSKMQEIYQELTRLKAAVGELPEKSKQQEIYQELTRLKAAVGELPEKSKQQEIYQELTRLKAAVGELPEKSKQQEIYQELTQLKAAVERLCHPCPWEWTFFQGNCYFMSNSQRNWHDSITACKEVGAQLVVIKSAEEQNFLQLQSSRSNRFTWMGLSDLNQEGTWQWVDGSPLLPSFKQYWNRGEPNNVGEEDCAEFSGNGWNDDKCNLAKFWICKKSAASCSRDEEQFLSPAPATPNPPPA
As to the kind of experiment: Solid-phase competition ELISA of DC-SIGN-Fc against PAA-fucose and PAA-Le^b; also Le^b bead competition on DC-SIGN expressing cells ([…]). It counts as binding. On the technique in general: ELISA stands for enzyme-linked immunosorbent assay.

As for `C[C@@H]1O[C@@H](O[C@H]2[C@H](O[C@H]3[C@H](O)[C@@H](O)C(O)O[C@@H]3CO)O[C@H](CO)[C@H](O)[C@@H]2O)[C@@H](O)[C@H](O)[C@@H]1O` (stereo partly shown) [2′-FL, 2′-Fucosyllactose], the “Solid-phase competition ELISA of DC-SIGN-Fc against PAA-fucose and PAA-Le^b; als” value is ~ 2 mM.
